Key:
Assay in all cases: relative viability (nuclei count vs DMSO), 5 days (fraction); higher = more cells survive
[1] = compound: COc1cccc2cc(-c3nc([C@H]4CC[C@H](C(=O)O)CC4)n4ncnc(N)c34)[nH]c12 [OSI-027] + C[C@]1(O)C[C@@H](c2nc(-c3ccc4ccc(-c5ccccc5)nc4c3)c3c(N)nccn32)C1 [Linsitinib] (partner 1 µM)
How it was run: (§1)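 Each reported value is a median over duplicate plates. It expresses relative viability: treated-well nuclei count divided by vehicle-well nuclei count. Lung cancer cell lines in 1536-well plates were dosed by pin tool a day after seeding, alone with one drug or with a fixed anchor-drug dose plus five library-drug doses (not always all listed) in √10 steps, and nuclei were counted after 5 days.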

[2] = compound: COc1cccc2cc(-c3nc([C@H]4CC[C@H](C(=O)O)CC4)n4ncnc(N)c34)[nH]c12 [OSI-027] + CCNC(=O)c1noc(-c2cc(C(C)C)c(O)cc2O)c1-c1ccc(CN2CCOCC2)cc1 [Luminespib] (partner 0.01 µM)
How it was run: as §1

[3] = compound: CCCS(=O)(=O)Nc1ccc(F)c(C(=O)c2c[nH]c3ncc(-c4ccc(Cl)cc4)cc23)c1F [Vemurafenib]
How it was run: (§2)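 Viability was defined as treated-well nuclei divided by vehicle-well nuclei, with the median taken over replicate plates. Cells from lung cancer lines sat overnight at 37 °C in 1536-well plates, received five √10-spaced library-drug doses by pinning on vehicle-anchored plates, and grew 5 days without medium change before one-step fixation, permeabilisation and Hoechst staining, 4× imaging and MetaXpress nuclear counts. Only plates with control CV under 25% and at least one doubling were kept.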

[4] = compound: COc1cccc2cc(-c3nc([C@H]4CC[C@H](C(=O)O)CC4)n4ncnc(N)c34)[nH]c12 [OSI-027]
How it was run: as §2

Cell Line	relative viability ([1]; first compound 0.01 µM)	relative viability ([1]; first compound 0.03162 µM)	relative viability ([1]; first compound 0.1 µM)	relative viability ([1]; first compound 0.3162 µM)	relative viability ([1]; first compound 1 µM)	relative viability ([2]; first compound 0.01 µM)	relative viability ([2]; first compound 0.03162 µM)	relative viability ([2]; first compound 0.1 µM)	relative viability ([2]; first compound 0.3162 µM)	relative viability ([2]; first compound 1 µM)	relative viability ([3]; 0.03162 µM)	relative viability ([3]; 0.1 µM)	relative viability ([3]; 1 µM)	relative viability ([4]; 0.01 µM)	relative viability ([4]; 0.03162 µM)	relative viability ([4]; 0.1 µM)	relative viability ([4]; 0.3162 µM)	relative viability ([4]; 0.5 µM, anchor plate)	relative viability ([4]; 1 µM)	relative viability ([3]; 0.3162 µM)
LOU-NH91	0.954	0.902	0.808	0.69	0.521	0.312	0.308	0.333	0.306	0.315	0.954	0.724	1.07	0.903	0.967	0.786	0.776	0.72	0.591	
LU99A	0.51	0.471	0.355	0.243	0.198	0.25	0.221	0.288	0.22	0.192	0.93	0.946	0.895	0.953	0.894	0.831	0.451	0.307	0.27	0.74
LXF-289	0.995	1.06	0.972	0.956	0.445	0.544	0.612	0.471	0.458	0.258	0.967	0.95	1.06	1.02	0.971	1.04	0.981	0.817	0.881	1
NCI-H23	0.517	0.549	0.452	0.237	0.212		0.215	0.188	0.203	0.225	0.918	0.967	0.871	0.906	0.96	0.808	0.784	0.612	0.54	0.838
NCI-H322M	0.805	0.778	0.787	0.589	0.868	0.84	0.831	0.66	0.446	0.369	0.883		0.906	0.922	0.887	0.843	0.72	0.578	0.527	1.11
NCI-H358	0.676	0.503	0.671	0.376	0.366	0.384	0.295	0.468	0.41	0.311	0.865		1.11	1	0.842	1.03	1.01	0.79	0.538	1.12
NCI-H441	0.643	0.452	0.399	0.387	0.206	0.367	0.393	0.307	0.235	0.236	0.899	0.963	0.931	1.19	1.05	0.984	0.963	0.636	0.474	0.787
NCI-H460	0.95	0.34	0.627	0.186	0.105	0.0335	0.032	0.0283	0.0249	0.0266	0.983	1	0.975	1.03	0.973	1.01	0.917	0.701	0.704	0.87
NCI-H520	1.08	0.931	0.888	0.614	0.311	0.258	0.37	0.211	0.168	0.202	0.944	0.944	0.924	1.15	0.972	0.73	0.628	0.261	0.34	1.08
NCI-H596	0.981	0.978	1.03	0.779	0.483	0.96	0.908	0.988	0.851	0.574	0.842	0.914	0.828	0.971	0.927	0.889	0.959	0.704	0.723	0.83
NCI-H647	1.29	1.2	0.944	0.855	0.496	0.153	0.146	0.145	0.149	0.0965	0.913	0.925	0.942	0.943	0.889	0.892	0.705	0.654	0.427	0.655
NCI-H650	0.701	0.892	0.492	0.442	0.334	0.757	0.731	0.749	0.648	0.381	0.882	0.965	0.628	0.862	0.999	0.732	0.701	0.532	0.403	0.413
NCI-H661	0.511	0.334	0.521	0.364	0.269	0.894	0.977	0.846	0.917	0.409	0.975	0.929	0.971	0.977	0.952	0.958	0.95	0.735	0.581	1.02
NCI-H727	0.239	0.344	0.281	0.229	0.264	0.444	0.328	0.381	0.318	0.479	1	0.802	0.908	0.849	0.884	0.893	0.769	0.624	0.712	1.2
NCI-H838	0.819	0.584	0.456	0.305	0.254	0.281	0.338	0.336	0.192	0.195	0.924	0.988	1.03	0.93	0.898	0.782	0.607	0.404	0.408	

— the supplement of paper PMC10307832
